According to patent publication US6384051B1, “Method of treating or inhibiting colonic polyps” (American Cyanamid Company, priority 2000, dated 2002):

melting point | SMILES
139 to 141 °C | COc1cc2ncc(C#N)c(Nc3ccc(Cl)cc3F)c2cc1OC [Example 228, 4-(4-Chloro-2-fluoro-phenylamino)-6,7-dimethoxy-quinoline-3-carbonitrile]
265 to 267 °C | COc1cc2ncc(C#N)c(Nc3ccc(Cl)c(C(F)(F)F)c3)c2cc1OC [Example 338, 4-(4-Chloro-3-trifluoromethylphenylamino)-6,7-dimethoxyquinoline-3-carbonitrile]
117 to 120 °C | CCN(CC)CC#CC(=O)Nc1ccc2ncc(C#N)c(Nc3ccc(F)c(Cl)c3)c2c1 [Example 189, N-[4-[(3-Chloro-4-fluorophenyl)amino]-3-cyano-6-quinolinyl]-4-diethylamino-2-butynamide]
190 to 193 °C | COc1cc2ncc(C#N)c(Nc3cccc(C(F)(F)F)c3)c2cc1OC [Example 42, 4-[(3-Trifluoromethylphenyl)amino]-6,7-dimethoxy-3-quinolinecarbonitrile]
282 to 285 °C | COc1cc2ncc(C#N)c(Nc3ccc(F)cc3)c2cc1OC [Example 46, 4-[(4-Fluorophenyl)amino]-6,7-dimethoxy-3-quinolinecarbonitrile]
240 °C (dec.) | COc1ccc(OC)c2c(Nc3cc(O)c(Cl)cc3F)c(C#N)cnc12 [Example 243, 4-(4-Chloro-2-fluoro-5-hydroxy-phenylamino)-5,8-dimethoxy-quinoline-3-carbonitrile]
138 to 140 °C (dec.) | COc1ccc(Nc2c(C#N)cnc3c(OC)cccc23)cc1O [Example 279, 4-(3-Hydroxy-4-methoxy-phenylamino)-8-methoxy-quinoline-3-carbonitrile]
130 °C (dec.) | CC(C)N(CC#CC(=O)Nc1ccc2ncc(C#N)c(Nc3cccc(Br)c3)c2c1)C(C)C [Example 192, N-[4-[(3-Bromophenyl)amino]-3-cyano-6-quinolinyl]-4-diisopropylamino-2-butynamide]
170 to 171 °C | COCC#CC(=O)Nc1ccc2ncc(C#N)c(Nc3ccc(F)c(Cl)c3)c2c1 [Example 194, N-[4-[-(3-Chloro-4-fluorophenyl)amino]-3-cyano-6-quinolinyl]-4-methoxy-2-butynamide]
201 to 205 °C | N#Cc1cnc2cc3c(cc2c1Nc1cccc(Br)c1)OCO3 [Example 40, 8-[(3-Bromophenyl)amino]-[1,3]-dioxolo[4,5-g]quinoline-7-carbonitrile]
270 to 272 °C | N#Cc1cnc2cc(O)c(O)cc2c1Nc1ccc(Cl)cc1F [Example 373, 4-(4-Chloro-2-fluoro-phenylamino)-6,7-dihydroxy-quinoline-3-carbonitrile]
297 °C (dec.) | COc1cccc2c(Nc3c(F)cc(F)cc3F)c(C#N)cnc12 [Example 280, 8-Methoxy-4-(2,4,6-trifluoro-phenylamino)-quinoline-3-carbonitrile]
200 to 202 °C | COc1ccc(Cl)cc1Nc1c(C#N)cnc2cc(OC)c(OC)cc12 [Example 372, 4-(5-Chloro-2-methoxyphenylamino)-6,7-dimethoxy-quinoline-3-carbonitrile]
> 250 °C | COc1cc2ncc(C#N)c(Nc3ccc(O)cc3C)c2cc1OC [Example 292, 4-(4-Hydroxy-2-methyl-phenylamino)-6,7-dimethoxy-quinoline-3-carbonitrile]
230 to 232 °C | COc1cc2ncc(C#N)c(Nc3ccc(O)c(Cl)c3)c2cc1OC [Example 249, 4-(3-Chloro-4-hydroxy-phenylamino)-6,7-dimethoxy-quinoline-3-carbonitrile]
240 °C (dec.) | COc1ccc2c(Nc3cc(O)c(Cl)cc3F)c(C#N)cnc2c1 [Example 282, 4-(4-Chloro-2-fluoro-5-hydroxy-phenylamino)-7-methoxy-quinoline-3-carbonitrile]
240 to 242 °C | COc1ccc(OC)c2c(Nc3ccc(C)c(O)c3)c(C#N)cnc12 [Example 239, 4-(3-Hydroxy-4-methyl-phenylamino)-5,8-dimethoxy-quinoline-3-carbonitrile]
> 250 °C | COc1cc2ncc(C#N)c(Nc3cc(Cl)ccc3O)c2cc1OC [Example 290, 4-(5-Chloro-2-hydroxy-phenylamino)-6,7-dimethoxy-quinoline-3-carbonitrile]
227 to 229 °C | COc1cc2ncc(C#N)c(Nc3ccc(Cl)cc3C)c2cc1OC [Example 336, 4-(4-Chloro-2-methylphenylamino)-6,7-dimethoxyquinoline-3-carbonitrile]
228 to 231 °C | CN(C)CC#CC(=O)Nc1ccc2ncc(C#N)c(Nc3ccc(F)c(Br)c3)c2c1 [Example 197, N-[4-[(3-Bromo-4-fluorophenyl)amino]-3-cyano-6-quinolinyl]-4-dimethylamino-2-butynamide]
> 250 °C (dec.) | COc1ccc2ncc(C#N)c(Nc3ccc(C)c(O)c3)c2c1 [Example 284, 4-(3-Hydroxy-4-methyl-phenylamino)-6-methoxy-quinoline-3-carbonitrile]
253 to 255 °C | COc1cc2ncc(C#N)c(Nc3cccc(C(N)=O)c3)c2cc1OC [Example 247, 3-(3-Cyano-6,7-dimethoxy-quinolin-4-ylamino)-benzamide]
292 to 294 °C | COc1cc2ncc(C#N)c(Nc3ccc(C)c(Br)c3)c2cc1OC [Example 248, 4-(3-Bromo-4-methyl-phenylamino)-6,7-dimethoxy-quinoline-3-carbonitrile]
114 to 118 °C | CN(C)CC#CC(=O)Nc1ccc2ncc(C#N)c(Nc3cccc(Br)c3)c2c1 [Example 59, N-[4-[(3-Bromophenyl)amino]-3-cyano-6-quinolinyl]-4-dimethylamino-2-butynamide]
> 250 °C | COc1cc2ncc(C#N)c(Nc3cc(Cl)c(O)c(Cl)c3)c2cc1OC [Example 286, 4-(3,5-Dichloro-4-hydroxy-phenylamino)-6,7-dimethoxy-quinoline-3-carbonitrile]
116 to 118 °C | COc1cc2ncc(C#N)c(Nc3ccc(C(F)(F)F)cc3)c2cc1OC [Example 376, 6,7-Dimethoxy-4-(4-trifluoromethyl-phenylamino)-quinoline-3-carbonitrile]
180 °C (dec.) | CN(C)CC#CC(=O)Nc1ccc2ncc(C#N)c(Nc3cccc(Br)c3)c2c1 [Example 329, N-[4-[(3-Bromophenyl)amino]-3-cyano-6-quinolinyl]-4-dimethylamino-2-butynamide]
120 to 126 °C | COc1cc2c(Nc3ccc(O)cc3C)c(C#N)cnc2cc1OCCCN1CCOCC1 [Example 312, 4-(4-Hydroxy-2-methyl-phenylamino)-6-methoxy-7-(3-morpholin-4yl-propoxy)-quinoline-3-carbonitrile]
146 °C (dec.) | COc1cccc2c(Nc3ccc(Br)c(O)c3)c(C#N)cnc12 [Example 278, 4-(4-Bromo-3-hydroxy-phenylamino)-8-methoxy-quinoline-3-carbonitrile]
223 to 225 °C | COc1cc2c(Nc3cc(O)c(Cl)cc3F)c(C#N)cnc2c(OC)c1OC [Example 244, 4-(4-Chloro-2-fluoro-5-hydroxy-phenylamino)-6,7,8-trimethoxy-quinoline-3-carbonitrile]
